The values below come from ChEMBL document CHEMBL3774317, “Design and synthesis of novel tamoxifen analogues that avoid CYP2D6 metabolism” (Eur J Med Chem, 2016).

What all share (assay type): functional
Test [1] in a line: Cytotoxicity against human BT549 cells assessed as cell growth at 10^-7 M after 48 hrs by SRB assay. The conditions noted are these: BT-549, 48 h, read-out: Activity. For orientation: The SRB assay estimates cell density from bound dye.
Test [2] in a line: Cytotoxicity against human TK10 cells assessed as cell growth at 10^-7 M after 48 hrs by SRB assay. The conditions noted are these: TK-10, 48 h, read-out: Activity.
Test [3] in a line: Cytotoxicity against human UACC257 cells assessed as cell growth at 10^-4 M after 48 hrs by SRB assay. The conditions noted are these: UACC-257, 48 h, read-out: Activity.
For test [4], the system named is NCI-H226. The test is described as follows: Cytotoxicity against human NCI-H226 cells assessed as cell growth at 10^-6 M after 48 hrs by SRB assay. The note with it: NCI-H226, 48 h, read-out: Activity.
In test [5] the test system is K562. Briefly: Cytotoxicity against human K562 cells assessed as cell growth at 10^-7 M after 48 hrs by SRB assay. The note with it: K562, 48 h, read-out: Activity.
Test [6] concerns T47D. Briefly: Cytotoxicity against human T47D cells assessed as cell growth at 10^-4 M after 48 hrs by SRB assay. The note with it: read-out: Activity.
Test [7] in a line: Cytotoxicity against human IGROV1 cells assessed as cell growth at 10^-6 M after 48 hrs by SRB assay. The note with it: IGROV-1, 48 h, read-out: Activity.
The nature of test [8]: Cytotoxicity against human MOLT4 cells assessed as cell growth at 10^-8 M after 48 hrs by SRB assay. The note with it: MOLT-4, 48 h, read-out: Activity.
The nature of test [9]: Cytotoxicity against human SNB75 cells assessed as cell growth at 10^-5 M after 48 hrs by SRB assay. The note with it: SNB-75, 48 h, read-out: Activity.
The test system of test [10] is KM12. The test is described as follows: Cytotoxicity against human KM12 cells assessed as cell growth at 10^-7 M after 48 hrs by SRB assay. The note with it: KM12, 48 h, read-out: Activity.
Test [11] concerns EKVX. The test is described as follows: Cytotoxicity against human EKVX cells assessed as cell growth at 10^-5 M after 48 hrs by SRB assay. The note with it: read-out: Activity.
Test [12] in a line: Cytotoxicity against human RXF393 cells assessed as cell growth at 10^-6 M after 48 hrs by SRB assay. The note with it: RXF 393, 48 h, read-out: Activity.
Test [13] in a line: Cytotoxicity against human LOXIMVI cells assessed as cell growth at 10^-4 M after 48 hrs by SRB assay. The conditions noted are these: LOX IMVI, read-out: Activity.
Test [14] can be described thus: Cytotoxicity against human NCI-ADR-RES cells assessed as cell growth at 10^-4 M after 48 hrs by SRB assay. The note with it: read-out: Activity.
The nature of test [15]: Cytotoxicity against human SKOV3 cells assessed as cell growth at 10^-8 M after 48 hrs by SRB assay. The note with it: SK-OV-3, 48 h, read-out: Activity.
Test [16] is described as follows: Cytotoxicity against human HOP92 cells assessed as cell growth at 10^-4 M after 48 hrs by SRB assay. The note with it: HOP-92, 48 h, read-out: Activity.
Test [17] concerns A498. The test is described as follows: Cytotoxicity against human A498 cells assessed as cell growth at 10^-8 M after 48 hrs by SRB assay. The note with it: A498, 48 h, read-out: Activity.
Test [18] concerns SN12C. The test is described as follows: Cytotoxicity against human SN12C cells assessed as cell growth at 10^-4 M after 48 hrs by SRB assay. The note with it: read-out: Activity.
Test [19] relates to MDA-MB-468. The test is described as follows: Cytotoxicity against human MDA-MB-468 cells assessed as cell growth at 0.5 uM after 48 hrs by SRB assay. The conditions noted are these: MDA-MB-468, 48 h, read-out: Activity.
A short description of test [20]: Cytotoxicity against human OVCAR4 cells assessed as cell growth at 0.5 uM after 48 hrs by SRB assay. The conditions noted are these: OVCAR-4, 48 h, read-out: Activity.
A short description of test [21]: Cytotoxicity against human IGROV1 cells assessed as cell growth at 50 uM after 48 hrs by SRB assay. The note with it: IGROV-1, 48 h, read-out: Activity.
Test [22] can be described thus: Cytotoxicity against human HL-60(TB) cells assessed as cell growth at 5 nM after 48 hrs by SRB assay. The note with it: HL-60, 48 h, read-out: Activity.
Test [23] is described as follows: Cytotoxicity against human HCT15 cells assessed as cell growth at 50 uM after 48 hrs by SRB assay. The conditions noted are these: HCT-15, 48 h, read-out: Activity.
Test [24] is described as follows: Cytotoxicity against human HOP62 cells assessed as cell growth at 50 nM after 48 hrs by SRB assay. The note with it: HOP-62, 48 h, read-out: Activity.
Test [25] in a line: Cytotoxicity against human COLO205 cells assessed as cell growth at 5 nM after 48 hrs by SRB assay. The conditions noted are these: COLO 205, 48 h, read-out: Activity.
Test [26] has as its system NCI-H226. Briefly: Cytotoxicity against human NCI-H226 cells assessed as cell growth at 5 nM after 48 hrs by SRB assay. The note with it: NCI-H226, 48 h, read-out: Activity.
Test [27] concerns NCI-H23. Briefly: Cytotoxicity against human NCI-H23 cells assessed as cell growth at 50 uM after 48 hrs by SRB assay. The note with it: NCI-H23, 48 h, read-out: Activity.
Test [28] can be described thus: Cytotoxicity against human IGROV1 cells assessed as cell growth at 0.5 uM after 48 hrs by SRB assay. The note with it: IGROV-1, 48 h, read-out: Activity.
Test [29] relates to SK-MEL-2. The test is described as follows: Cytotoxicity against human SK-MEL-2 cells assessed as cell growth at 50 uM after 48 hrs by SRB assay. The conditions noted are these: SK-MEL-2, 48 h, read-out: Activity.
In test [30] the test system is A549. The test is described as follows: Cytotoxicity against human A549 cells assessed as cell growth at 5 nM after 48 hrs by SRB assay. The note with it: A549, 48 h, read-out: Activity.
For test [31], the system named is NCI-H226. Briefly: Cytotoxicity against human NCI-H226 cells assessed as cell growth at 0.5 uM after 48 hrs by SRB assay. The conditions noted are these: NCI-H226, 48 h, read-out: Activity.
A short description of test [32]: Cytotoxicity against human RPMI8226 cells assessed as cell growth at 5 nM after 48 hrs by SRB assay. The note with it: RPMI-8226, 48 h, read-out: Activity.
For test [33], the system named is SN12C. The test is described as follows: Cytotoxicity against human SN12C cells assessed as cell growth at 50 uM after 48 hrs by SRB assay. The conditions noted are these: read-out: Activity.
Test [34] in a line: Cytotoxicity against human SF295 cells assessed as cell growth at 5 uM after 48 hrs by SRB assay. The conditions noted are these: SF-295, 48 h, read-out: Activity.
The test system of test [35] is K562. The test is described as follows: Cytotoxicity against human K562 cells assessed as cell growth at 50 uM after 48 hrs by SRB assay. The conditions noted are these: K562, 48 h, read-out: Activity.
For test [36], the system named is MDA-MB-435. Briefly: Cytotoxicity against human MDA-MB-435 cells assessed as cell growth at 50 uM after 48 hrs by SRB assay. The note with it: MDA-MB-435, 48 h, read-out: Activity.
Test [37] relates to Malme-3M. Briefly: Cytotoxicity against human MALME-3M cells assessed as cell growth at 5 uM after 48 hrs by SRB assay. The conditions noted are these: read-out: Activity.
Test [38] in a line: Cytotoxicity against human LOXIMVI cells assessed as cell growth at 5 uM after 48 hrs by SRB assay. The conditions noted are these: LOX IMVI, read-out: Activity.
A short description of test [39]: Cytotoxicity against human SF295 cells assessed as cell growth at 50 nM after 48 hrs by SRB assay. The note with it: SF-295, 48 h, read-out: Activity.
Test [40] deals with NCI-H522. Briefly: Cytotoxicity against human NCI-H522 cells assessed as cell growth at 5 nM after 48 hrs by SRB assay. The conditions noted are these: NCI-H522, 48 h, read-out: Activity.
Test [41] concerns KM12. Briefly: Cytotoxicity against human KM12 cells assessed as cell growth at 0.5 uM after 48 hrs by SRB assay. The note with it: KM12, 48 h, read-out: Activity.

For `C/C(=C(/c1ccc(O)cc1)c1ccc(OCCN2CCCC2)cc1)c1ccccc1`, the growth at 0.1 µM in test [1] came out at 100%; in [2], 94%; in test [5] it was 96%; in test [10], 100%. Further, the growth at 100 µM in [3] was -99%; in test [6] it was -67%; in [13], -93%; in test [14], -70%; in test [16], -88%; in test [18] it was -69%. Further, the figures for the growth at 1 µM in test [4], in [7] and in [12] were 91%, 95% and 87%, respectively. Moreover, the growth at 0.01 µM in [8] came out at 102%; in test [15] it was 88%; in test [17], 66%. In addition, the values for the growth at 10 µM in [9] and in [11] were 23% and 6%, respectively.

On to `CCCCCCCCCC(=O)Oc1ccc(/C(=C(/C)c2ccccc2)c2ccc(OCCN3CCCC3)cc2)cc1`, for which the growth at 0.5 µM in test [19] worked out at 69%; in test [20], 68%; in [28] it was 72%; in test [31], 100%; in [41], 76%. For the same molecule, the growth at 50 µM in [21] was -58%; in [23], -100%; in [27], -78%; in test [29], -79%; in test [33], -76%; in test [35], -70%. In addition, the growth at 50 µM in [36] is -100%. Also, the growth at 0.005 µM is 101% in test [22]; 104% in [25]; 93% in test [26]; 101% in test [30]; 99% in test [32]; 101% in test [40]. The growth at 0.05 µM amounted to 95% in test [24] and 89% in test [39]. Further, the values for the growth at 5 µM in test [34], in [37] and in [38] were 86%, 81% and 89%, respectively.
